These are literature values, as cited in patent US20240269238A1, “Therapeutic Regimens and Methods for Reducing Body Weight in a Subject with Fatty Liver Disease using a GLP-1R and GCGR Agonist” (Spitfire Pharma LLC, priority 2022, published 2024).

In one series the test system is liver fat content. As to conditions: 6 weeks; cited from earlier work.
For series [1] the following is noted: over 26 weeks of administration; cited from earlier work.

In the case of `CCCCCCCCCCCCCCCC(=O)N[C@@H](CCC(=O)NCCCC[C@H](NC(=O)[C@H](CC(=O)O)NC(=O)[C@H](CO)NC(=O)[C@@H](NC(=O)[C@H](Cc1ccccc1)NC(=O)[C@@H](NC(=O)CNC(=O)[C@H](CCC(N)=O)NC(=O)[C@H](CO)NC(=O)[C@@H](N)Cc1c[nH]cn1)[C@@H](C)O)[C@@H](C)O)C(=O)N[C@@H](CO)C(=O)N[C@@H](CCC(=O)O)C(=O)N[C@@H](Cc1ccc(O)cc1)C(=O)N[C@@H](CC(C)C)C(=O)N[C@@H](CC(=O)O)C(=O)N[C@@H](CO)C(=O)N[C@@H](CCC(=O)O)C(=O)N[C@@H](CCCNC(=N)N)C(=O)N[C@@H](C)C(=O)N[C@@H](CCCNC(=N)N)C(=O)N[C@@H](CC(=O)O)C(=O)N[C@@H](Cc1ccccc1)C(=O)N[C@H](C(=O)N[C@@H](C)C(=O)N[C@@H](Cc1c[nH]c2ccccc12)C(=O)N[C@@H](CC(C)C)C(=O)N[C@@H](CCC(=O)O)C(=O)N[C@@H](C)C(=O)NCC(=O)NCC(=O)O)C(C)C)C(=O)O` [cotadutide], the “reduction in liver fat content” value in the series on liver fat content is 39%. Also, the weight loss in series [1] was 5.4%.
